Legend:
Cytochrome P450 2C9 = Cytochrome P450 2C9 (Homo sapiens, UniProt P11712); further: in other assays of this panel Not Active means under 50% inhibition at 10 µM
[1] = biological target: Kappa-type opioid receptor (Homo sapiens, UniProt P41145); assay: DRUGMATRIX: Opiate kappa (OP2, KOP) radioligand binding (ligand: [3H] Diprenorphine); assay type: cell membranes, HEK293, Membrane; settings: Not Active = under 50% inhibition at 10 µM
Mu-type opioid receptor = Mu-type opioid receptor (Homo sapiens, UniProt P35372); assay: DRUGMATRIX: Opiate mu (OP3, MOP) radioligand binding (ligand: [3H] Diprenorphine); assay type: cell membranes, CHO-K1, Membrane; settings: Not Active = under 50% inhibition at 10 µM
Chain of Mu-type opioid receptor (P35372 whole entry): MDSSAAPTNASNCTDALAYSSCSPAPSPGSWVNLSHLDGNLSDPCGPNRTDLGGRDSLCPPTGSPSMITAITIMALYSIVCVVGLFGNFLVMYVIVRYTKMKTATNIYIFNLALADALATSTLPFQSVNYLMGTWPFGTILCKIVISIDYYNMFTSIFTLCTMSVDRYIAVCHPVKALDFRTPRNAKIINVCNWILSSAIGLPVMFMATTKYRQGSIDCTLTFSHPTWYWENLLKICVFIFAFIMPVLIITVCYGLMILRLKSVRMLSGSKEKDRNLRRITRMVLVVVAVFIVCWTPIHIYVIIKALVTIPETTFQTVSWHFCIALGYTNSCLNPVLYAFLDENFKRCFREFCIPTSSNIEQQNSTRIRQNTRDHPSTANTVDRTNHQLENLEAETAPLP

Cytochrome P450 2D6 = Cytochrome P450 2D6 (Homo sapiens, UniProt P10635); further: in other assays of this panel Not Active means under 50% inhibition at 10 µM
Chain of Cytochrome P450 2D6 (P10635 whole entry): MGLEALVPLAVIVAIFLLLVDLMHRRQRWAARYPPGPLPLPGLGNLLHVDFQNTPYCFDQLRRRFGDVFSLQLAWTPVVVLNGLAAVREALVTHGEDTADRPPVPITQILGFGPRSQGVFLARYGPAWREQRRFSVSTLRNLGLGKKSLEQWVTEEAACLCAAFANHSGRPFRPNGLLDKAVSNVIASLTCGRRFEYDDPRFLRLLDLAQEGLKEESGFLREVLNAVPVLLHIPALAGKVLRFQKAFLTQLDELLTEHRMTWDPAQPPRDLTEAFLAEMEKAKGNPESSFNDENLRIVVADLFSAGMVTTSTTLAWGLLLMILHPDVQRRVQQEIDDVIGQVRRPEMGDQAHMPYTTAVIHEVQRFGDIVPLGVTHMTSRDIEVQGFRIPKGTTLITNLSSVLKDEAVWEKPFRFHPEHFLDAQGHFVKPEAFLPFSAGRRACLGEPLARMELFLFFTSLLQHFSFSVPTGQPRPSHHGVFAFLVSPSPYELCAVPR

[2] = DRUGMATRIX: Sigma2 radioligand binding (ligand: [3H] Ifenprodil); assay type: cell membranes, Rattus norvegicus, Wistar, Brain, Membrane; settings: Not Active = under 50% inhibition at 10 µM
[3] = DRUGMATRIX: Potassium Channel [KATP] radioligand binding (ligand: [3H] Glyburide); assay type: cell membranes, Membrane; settings: hit-t15; Not Active = under 50% inhibition at 10 µM
[4] = DRUGMATRIX: Phorbol Ester radioligand binding (ligand: [3H] PDBu); assay type: cell membranes, Mus musculus, ICR, Brain, Membrane; settings: Not Active = under 50% inhibition at 10 µM
Androgen receptor = biological target: T1, Androgen receptor (Rattus norvegicus, UniProt P15207); further: in other assays of this panel Not Active means under 50% inhibition at 10 µM
T1 sequence (P15207 whole entry): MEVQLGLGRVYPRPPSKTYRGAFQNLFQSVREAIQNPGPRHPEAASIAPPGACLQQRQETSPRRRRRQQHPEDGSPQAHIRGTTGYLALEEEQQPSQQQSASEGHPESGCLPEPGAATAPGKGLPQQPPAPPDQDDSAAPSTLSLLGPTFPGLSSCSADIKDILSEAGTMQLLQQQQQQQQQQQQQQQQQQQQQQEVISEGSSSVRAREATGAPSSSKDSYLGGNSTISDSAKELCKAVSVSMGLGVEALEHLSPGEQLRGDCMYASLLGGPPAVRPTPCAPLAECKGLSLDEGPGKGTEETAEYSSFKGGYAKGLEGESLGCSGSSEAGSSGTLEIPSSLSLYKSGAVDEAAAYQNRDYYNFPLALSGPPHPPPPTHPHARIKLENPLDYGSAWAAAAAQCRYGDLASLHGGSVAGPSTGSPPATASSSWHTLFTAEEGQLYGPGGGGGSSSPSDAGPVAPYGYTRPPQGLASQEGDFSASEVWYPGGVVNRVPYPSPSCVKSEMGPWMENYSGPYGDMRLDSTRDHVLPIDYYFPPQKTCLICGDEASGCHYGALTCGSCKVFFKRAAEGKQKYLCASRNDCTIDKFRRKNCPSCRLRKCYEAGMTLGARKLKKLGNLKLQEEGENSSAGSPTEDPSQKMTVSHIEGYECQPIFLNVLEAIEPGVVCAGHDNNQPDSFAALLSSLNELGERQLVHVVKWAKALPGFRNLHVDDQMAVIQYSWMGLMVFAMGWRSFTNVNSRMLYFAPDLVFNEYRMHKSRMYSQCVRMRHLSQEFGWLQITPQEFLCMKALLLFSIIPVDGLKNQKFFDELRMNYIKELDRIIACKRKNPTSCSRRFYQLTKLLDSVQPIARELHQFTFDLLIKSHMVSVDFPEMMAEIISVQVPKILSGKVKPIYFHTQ

Cytochrome P450 1A2 = biological target: T2, Cytochrome P450 1A2 (Homo sapiens, UniProt P05177); further: in other assays of this panel Not Active means under 50% inhibition at 10 µM
T2 sequence (P05177 whole entry): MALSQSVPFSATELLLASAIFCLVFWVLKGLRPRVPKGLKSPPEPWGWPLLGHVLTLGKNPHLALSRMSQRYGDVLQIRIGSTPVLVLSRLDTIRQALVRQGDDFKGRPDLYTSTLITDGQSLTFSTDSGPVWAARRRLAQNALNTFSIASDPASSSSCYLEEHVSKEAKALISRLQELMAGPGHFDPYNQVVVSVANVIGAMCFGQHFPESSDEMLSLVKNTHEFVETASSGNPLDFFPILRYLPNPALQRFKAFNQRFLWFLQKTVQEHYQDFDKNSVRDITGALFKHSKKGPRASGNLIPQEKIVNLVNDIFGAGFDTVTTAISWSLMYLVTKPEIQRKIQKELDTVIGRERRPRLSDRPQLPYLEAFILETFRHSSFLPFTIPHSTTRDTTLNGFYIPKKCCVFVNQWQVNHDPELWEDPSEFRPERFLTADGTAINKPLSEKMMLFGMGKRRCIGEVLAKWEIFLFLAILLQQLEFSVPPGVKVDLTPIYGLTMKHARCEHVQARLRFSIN

Chain of Kappa-type opioid receptor (P41145 whole entry): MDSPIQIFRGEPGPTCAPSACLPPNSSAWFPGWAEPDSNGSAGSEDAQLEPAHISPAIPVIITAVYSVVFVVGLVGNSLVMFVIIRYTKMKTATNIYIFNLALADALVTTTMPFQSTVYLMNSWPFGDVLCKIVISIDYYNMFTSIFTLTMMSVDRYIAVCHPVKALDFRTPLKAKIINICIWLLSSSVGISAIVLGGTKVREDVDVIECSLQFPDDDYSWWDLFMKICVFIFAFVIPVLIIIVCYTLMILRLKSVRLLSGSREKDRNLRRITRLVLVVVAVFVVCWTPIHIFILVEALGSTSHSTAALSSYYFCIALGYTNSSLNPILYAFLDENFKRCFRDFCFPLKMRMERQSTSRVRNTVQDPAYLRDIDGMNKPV
Chain of Cytochrome P450 2C9 (P11712 whole entry): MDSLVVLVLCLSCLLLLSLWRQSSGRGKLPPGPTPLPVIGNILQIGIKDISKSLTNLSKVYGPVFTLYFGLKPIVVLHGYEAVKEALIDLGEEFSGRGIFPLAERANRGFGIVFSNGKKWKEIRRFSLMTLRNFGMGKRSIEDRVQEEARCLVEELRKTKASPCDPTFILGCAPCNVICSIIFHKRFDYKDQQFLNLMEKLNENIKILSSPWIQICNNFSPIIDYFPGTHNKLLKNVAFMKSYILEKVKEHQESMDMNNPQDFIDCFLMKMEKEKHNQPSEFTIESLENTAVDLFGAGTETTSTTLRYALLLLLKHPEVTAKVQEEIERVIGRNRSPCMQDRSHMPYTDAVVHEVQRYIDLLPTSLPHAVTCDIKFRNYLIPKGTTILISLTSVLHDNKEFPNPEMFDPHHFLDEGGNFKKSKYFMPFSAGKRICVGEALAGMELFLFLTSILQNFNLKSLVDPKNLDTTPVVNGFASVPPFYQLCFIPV

| Molecule | IC50 [2] | Ki [2] | IC50 ([1]; hek293) | IC50 [3] | Ki [3] | IC50 [4] | Ki [4] | IC50 (Mu-type opioid receptor; cho-k1) | other results |
| --- | --- | --- | --- | --- | --- | --- | --- | --- | --- |
| Clc1ccc(COC(Cn2ccnc2)c2ccc(Cl)cc2Cl)c(Cl)c1 (centres undefined) [MICONAZOLE] | – | – | – | – | – | – | – | – | IC50 (Cytochrome P450 2C9): 0.2 µM; Ki [1]: 2.64 µM; IC50 ([1]; read-out: IC50): 6.59 µM; Ki (Mu-type opioid receptor): 2.46 µM; IC50 (Mu-type opioid receptor; read-out: IC50): 6.06 µM; IC50 (Cytochrome P450 2D6): 1 µM |
| CC1CCC(NC(=O)N(CCCl)N=O)CC1 (centres undefined) [SEMUSTINE] | Not Active | Not Active | Not Active | Not Active | Not Active | Not Active | Not Active | Not Active | – |
| O=C1C[C@@H]2OCC=C3CN4CC[C@]56c7ccccc7N1[C@H]5[C@H]2[C@H]3C[C@H]46 [STRYCHNINE] | Not Active | Not Active | – | Not Active | Not Active | Not Active | Not Active | – | – |
| C[S+]([O-])c1ccc(-c2nc(-c3ccncc3)c(-c3ccc(F)cc3)[nH]2)cc1 (centres undefined) [SB-203580] | – | – | Not Active | – | – | – | – | Not Active | IC50 (Cytochrome P450 2C9): 1 µM; IC50 (Androgen receptor): Not Active; IC50 (Cytochrome P450 1A2): 2 µM; IC50 (Cytochrome P450 2D6): 2 µM |
| CC(=N)S [THIOACETAMIDE] | Not Active | Not Active | Not Active | Not Active | Not Active | Not Active | Not Active | Not Active | – |
| COC(=O)[C@H]1[C@H]2C[C@@H]3c4[nH]c5cc(OC)ccc5c4CCN3C[C@H]2C[C@@H](OC(=O)c2cc(OC)c(OC)c(OC)c2)[C@@H]1OC [RESERPINE] | Not Active | Not Active | Not Active | Not Active | Not Active | Not Active | Not Active | – | Ki (Mu-type opioid receptor): 1.69 µM; IC50 (Mu-type opioid receptor; read-out: IC50): 4.15 µM |
| O=c1[nH]c(=O)n(C2CCCO2)cc1F (centres undefined) [TEGAFUR] | Not Active | Not Active | Not Active | Not Active | Not Active | Not Active | Not Active | Not Active | – |
| C[N+](C)(C)CCOC(=O)CCC(=O)OCC[N+](C)(C)C.[Cl-].[Cl-] [SUCCINYLCHOLINE CHLORIDE] | Not Active | Not Active | – | Not Active | Not Active | Not Active | Not Active | Not Active | – |
| CCCCC(=O)N(Cc1ccc(-c2ccccc2-c2nnn[nH]2)cc1)[C@H](C(=O)O)C(C)C | Not Active | Not Active | Not Active | Not Active | Not Active | Not Active | Not Active | Not Active | – |
| CN1CCN(C2=Nc3cc(Cl)ccc3Nc3ccccc32)CC1 [CLOZAPINE] | – | – | Not Active | – | – | – | – | Not Active | – |
| Oc1ccc2c3c1O[C@H]1[C@@H](O)CC[C@@]4(O)[C@@H](C2)N(CC2CCC2)CC[C@]314 [NALBUPHINE] | – | – | – | – | – | – | – | – | IC50 (Androgen receptor): Not Active |
| O=C(O)c1ccccc1O [SALICYLIC ACID] | Not Active | Not Active | – | Not Active | Not Active | Not Active | Not Active | – | – |
| Nc1ccc(S(=O)(=O)NC(=O)c2ccccc2)cc1 [SULFABENZAMIDE] | Not Active | Not Active | Not Active | Not Active | Not Active | Not Active | Not Active | Not Active | – |
| C[C@@](Cc1ccc(O)c(O)c1)(NN)C(=O)O.O [CARBIDOPA] | Not Active | Not Active | Not Active | Not Active | Not Active | Not Active | Not Active | Not Active | – |
| CCCCCCCCNC(C)C(O)c1ccc(SC(C)C)cc1 (centres undefined) [SULOCTIDIL] | – | – | Not Active | Not Active | Not Active | Not Active | Not Active | Not Active | IC50 ([2]; read-out: IC50): 0.0214 µM; Ki ([2]; read-out: Ki): 0.0132 µM; IC50 (Androgen receptor): Not Active |
| CN1CCN(CCCN2c3ccccc3Sc3ccc(C(F)(F)F)cc32)CC1 [TRIFLUOPERAZINE] | Not Active | Not Active | Not Active | Not Active | Not Active | Not Active | Not Active | Not Active | – |
| C[C@]12C=CC(=O)C=C1CC[C@@H]1[C@@H]2C(=O)C[C@@]2(C)[C@H]1CC[C@]2(O)C(=O)CO [PREDNISONE] | Not Active | Not Active | Not Active | Not Active | Not Active | Not Active | Not Active | Not Active | – |
| OCCOCCN1CCN(C2=Nc3ccccc3Sc3ccccc32)CC1 [QUETIAPINE] | – | – | Not Active | – | – | – | – | Not Active | – |
| CC(C)NC[C@H](O)COc1cccc2ccccc12 [LEVOPROPRANOLOL] | – | – | Not Active | – | – | – | – | Not Active | – |
| O=C(O)CCCCC1CCSS1 (stereo not drawn) [LIPOIC ACID, ALPHA] | Not Active | Not Active | Not Active | Not Active | Not Active | Not Active | Not Active | Not Active | – |
| CC(C)NC[C@@H](O)COc1cccc2ccccc12 [DEXPROPRANOLOL] | – | – | Not Active | – | – | – | – | Not Active | – |
| Cc1ccc(C(=O)c2ccc(CC(=O)O)n2C)cc1 [TOLMETIN] | Not Active | Not Active | Not Active | Not Active | Not Active | Not Active | Not Active | Not Active | IC50 (Androgen receptor): Not Active |
| CC(=O)OCC(COC(C)=O)OC(C)=O [TRIACETIN] | Not Active | Not Active | Not Active | Not Active | Not Active | Not Active | Not Active | Not Active | – |
| TRANSPLATIN | Not Active | Not Active | – | Not Active | Not Active | Not Active | Not Active | – | IC50 (Androgen receptor): Not Active; Ki (Androgen receptor): Not Active |
| O=C(O)COc1ccc(C(=O)c2cccs2)c(Cl)c1Cl | Not Active | Not Active | Not Active | Not Active | Not Active | Not Active | Not Active | Not Active | IC50 (Androgen receptor): Not Active |
| CN1[C@@H]2CC[C@H]1C[C@@H](OC(c1ccccc1)c1ccccc1)C2 [BENZTROPINE] | – | – | Not Active | – | – | – | – | Not Active | – |
| ZIRCONIUM(IV) CHLORIDE | Not Active | Not Active | – | Not Active | Not Active | Not Active | Not Active | – | IC50 (Androgen receptor): Not Active; Ki (Androgen receptor): Not Active |

Source: ChEMBL document CHEMBL1909046, “DrugMatrix in vitro pharmacology data”
